How the values were obtained:
galium = experiment: Test C preemergence; assay type: in vivo, Galium aparine
Outline: (§1)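 Visual injury score versus untreated controls, 0 = no effect, 100 = complete control, taken 13 to 15 days after treatment in the greenhouse. Pre-emergence pots held loam/sand; post-emergence plants grew in sphagnum peat/vermiculite mix and were sprayed at the 1- to 4-leaf stage.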

Heteranthera limosa = experiment: Test B flooded paddy test; assay type: in vivo; settings: Flood, 250 g ai/ha, 0 to 100 scale where 0 is no effect and 100 is complete control
Outline: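 2-leaf stage plants; pots flooded to 3 cm, compound added to paddy water, depth maintained. Greenhouse 13–15 d. Visual rating vs untreated controls, 0 (no effect) to 100 (complete control); dash = no result.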

waterhemp = experiment: Test C preemergence; assay type: in vivo, Amaranthus rudis; settings: preemergence
Outline: as §1

Italian ryegrass = experiment: Test C preemergence; assay type: in vivo, Lolium multiflorum; settings: preemergence
Outline: as §1

wheat, winter = experiment: Test C preemergence; assay type: in vivo, Triticum aestivum; settings: preemergence
Outline: as §1

large (Lg) crabgrass = experiment: Test A preemergence; assay type: in vivo, Digitaria sanguinalis; settings: 0 to 100 scale where 0 is no effect and 100 is complete control
Outline: (§2)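 Pre- and postemergence greenhouse screen. Soil: loam + sand. Spray carrier: solvent mixture, non-phytotoxic, with surfactant. Post timing at 1–2 leaves, height 2–10 cm. Readout: visual injury on a 0–100 scale roughly 10 days after application, untreated plants as reference.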

wheat = experiment: Test A postemergence; assay type: in vivo, Triticum aestivum; settings: 0 to 100 scale where 0 is no effect and 100 is complete control
Outline: as §2

barnyardgrass = experiment: Test A postemergence; assay type: in vivo, Echinochloa crus-galli; settings: 0 to 100 scale where 0 is no effect and 100 is complete control
Outline: as §2

blackgrass = experiment: Test C preemergence; assay type: in vivo, Alopecurus myosuroides
Outline: as §1

morningglory [1] = experiment: Test C postemergence; assay type: in vivo, Ipomoea coccinea; settings: for Morningglory plant response rating: 31 g ai/ha, 13 to 15 days
Outline: as §1

morningglory [2] = experiment: Test C preemergence; assay type: in vivo, Ipomoea coccinea; settings: preemergence
Outline: as §1

[3] = postemergence, visual rating, scale 0 to 100 (0 no effect, 100 complete control)
[4] = 16 g ai/ha, preemergence, scale 0 to 100 (0 no effect, 100 complete control)
[5] = 62 g ai/ha, preemergence, scale 0 (no effect) to 100 (complete control)
[6] = 125 g ai/ha, preemergence, scale 0 (no effect) to 100 (complete control)
[7] = Preemergence, 31 g ai/ha, scale 0 to 100, 0 no effect, 100 complete control
[8] = 16 g ai/ha, scale 0 to 100 (0 no effect, 100 complete control)
[9] = 62 g ai/ha, scale 0 (no effect) to 100 (complete control)
[10] = 125 g ai/ha, scale 0 (no effect) to 100 (complete control)

FC(F)(F)c1cn(-c2ccccc2Oc2ncc(Cl)cn2)nn1 [Compound 166, 5-chloro-2-[2-[4-(trifluoromethyl)-1H-1,2,3-triazol-1-yl]phenoxy]pyrimidine]
pest or weed control at 16 g/ha (galium; Galium, pre-emergence, 16 g ai/ha, preemergence, scale 0 to 100 (0 no effect, 100 complete control), read-out: Galium plant response rating): 98%
pest or weed control at 62 g/ha (galium; Galium, pre-emergence, 62 g ai/ha, preemergence, scale 0 (no effect) to 100 (complete control), read-out: Galium plant response rating): 95%
pest or weed control at 125 g/ha (galium; Galium, pre-emergence, 125 g ai/ha, preemergence, scale 0 (no effect) to 100 (complete control), read-out: Galium plant response rating): 95%
pest or weed control at 31 g/ha (galium; Galium, pre-emergence, Preemergence, 31 g ai/ha, scale 0 to 100, 0 no effect, 100 complete control, read-out: Plant response rating, Galium): 100%
pest or weed control at 250 g/ha (Heteranthera limosa; Heteranthera limosa, read-out: Plant response rating, Ducksalad): 95%
pest or weed control at 16 g/ha (waterhemp; Amaranthus tuberculatus, pre-emergence, 16 g ai/ha, scale 0 to 100 (0 no effect, 100 complete control), read-out: Waterhemp plant response rating): 100%
pest or weed control at 62 g/ha (waterhemp; Amaranthus tuberculatus, pre-emergence, 62 g ai/ha, scale 0 (no effect) to 100 (complete control), read-out: Waterhemp plant response rating): 100%
pest or weed control at 125 g/ha (waterhemp; Amaranthus tuberculatus, pre-emergence, 125 g ai/ha, scale 0 (no effect) to 100 (complete control), read-out: Waterhemp plant response rating): 100%
pest or weed control at 16 g/ha (Italian ryegrass; Lolium multiflorum, pre-emergence, 16 g ai/ha, scale 0 to 100 (0 no effect, 100 complete control), read-out: Ryegrass, Italian plant response rating): 5%
pest or weed control at 62 g/ha (Italian ryegrass; Lolium multiflorum, pre-emergence, 62 g ai/ha, scale 0 (no effect) to 100 (complete control), read-out: Ryegrass, Italian plant response rating): 90%
pest or weed control at 125 g/ha (Italian ryegrass; Lolium multiflorum, pre-emergence, 125 g ai/ha, scale 0 (no effect) to 100 (complete control), read-out: Ryegrass, Italian plant response rating): 90%
plant injury at 16 g/ha (wheat, winter; Triticum aestivum, pre-emergence, 16 g ai/ha, scale 0 to 100 (0 no effect, 100 complete control), read-out: Wheat plant response rating): 0%
plant injury at 62 g/ha (wheat, winter; Triticum aestivum, pre-emergence, 62 g ai/ha, scale 0 (no effect) to 100 (complete control), read-out: Wheat plant response rating): 60%
plant injury at 125 g/ha (wheat, winter; Triticum aestivum, pre-emergence, 125 g ai/ha, scale 0 (no effect) to 100 (complete control), read-out: Wheat plant response rating): 90%
pest or weed control at 125 g/ha (large (Lg) crabgrass; Digitaria sanguinalis, pre-emergence, 240 h, 125 g ai/ha, read-out: Plant response rating, Crabgrass, Large): 100%
pest or weed control at 500 g/ha (large (Lg) crabgrass; Digitaria sanguinalis, pre-emergence, 240 h, 500 g ai/ha, read-out: Crabgrass, Large plant response rating): 100%
plant injury at 125 g/ha (wheat; Triticum aestivum, post-emergence, 240 h, 125 g ai/ha, read-out: Wheat plant response rating): 60%
plant injury at 500 g/ha (wheat; Triticum aestivum, post-emergence, 240 h, 500 g ai/ha, read-out: Plant response rating, Wheat): 70%
pest or weed control at 125 g/ha (barnyardgrass; Echinochloa crus-galli, post-emergence, 240 h, 125 g ai/ha, read-out: Barnyardgrass plant response rating): 90%
pest or weed control at 500 g/ha (barnyardgrass; Echinochloa crus-galli, post-emergence, 240 h, 500 g ai/ha, read-out: Plant response rating, Barnyardgrass): 100%
pest or weed control at 16 g/ha (blackgrass; Alopecurus myosuroides, pre-emergence, 16 g ai/ha, preemergence, scale 0 to 100 (0 no effect, 100 complete control), read-out: Blackgrass plant response rating): 40%
pest or weed control at 62 g/ha (blackgrass; Alopecurus myosuroides, pre-emergence, 62 g ai/ha, preemergence, scale 0 (no effect) to 100 (complete control), read-out: Blackgrass plant response rating): 90%
pest or weed control at 125 g/ha (blackgrass; Alopecurus myosuroides, pre-emergence, 125 g ai/ha, preemergence, scale 0 (no effect) to 100 (complete control), read-out: Blackgrass plant response rating): 100%
pest or weed control at 31 g/ha (blackgrass; Alopecurus myosuroides, pre-emergence, Preemergence, 31 g ai/ha, scale 0 to 100, 0 no effect, 100 complete control, read-out: Plant response rating, Blackgrass): 85%
Morningglory plant response rating (morningglory [1]; [3]): 70
pest or weed control at 16 g/ha (morningglory [1]; Ipomoea, post-emergence, 16 g ai/ha, postemergence, 0 is no effect, 100 is complete control, read-out: Plant response rating (0 to 100), Morningglory): 85%
pest or weed control at 125 g/ha (morningglory [1]; Ipomoea, post-emergence, 125 g ai/ha, postemergence, visual rating, scale 0 to 100 (0 no effect, 100 complete control), read-out: Plant response rating, Morningglory): 95%
pest or weed control at 62 g/ha (morningglory [1]; Ipomoea, post-emergence, Postemergence, 62 g ai/ha, scale 0 to 100 (0 no effect, 100 complete control), read-out: Plant response rating, Morningglory): 85%
pest or weed control at 16 g/ha (morningglory [2]; Ipomoea, pre-emergence, 16 g ai/ha, scale 0 to 100 (0 no effect, 100 complete control), read-out: Morningglory plant response rating): 15%
pest or weed control at 62 g/ha (morningglory [2]; Ipomoea, pre-emergence, 62 g ai/ha, scale 0 (no effect) to 100 (complete control), read-out: Morningglory plant response rating): 98%
pest or weed control at 125 g/ha (morningglory [2]; Ipomoea, pre-emergence, 125 g ai/ha, scale 0 (no effect) to 100 (complete control), read-out: Morningglory plant response rating): 100%

FC(F)(F)c1cnn(-c2c(Cl)cccc2Oc2ncc(Cl)cn2)c1 [Compound 167]
Galium plant response rating (galium; [4]): 98
Galium plant response rating (galium; [5]): 100
Galium plant response rating (galium; [6]): 100
Plant response rating, Galium (galium; [7]): 100
Plant response rating, Ducksalad (Heteranthera limosa): 100
Waterhemp plant response rating (waterhemp; [8]): 100
Waterhemp plant response rating (waterhemp; [9]): 100
Waterhemp plant response rating (waterhemp; [10]): 100
Ryegrass, Italian plant response rating (Italian ryegrass; [8]): 5
Ryegrass, Italian plant response rating (Italian ryegrass; [9]): 80
Ryegrass, Italian plant response rating (Italian ryegrass; [10]): 90
Wheat plant response rating (wheat, winter; [8]): 0
Wheat plant response rating (wheat, winter; [9]): 5
Wheat plant response rating (wheat, winter; [10]): 50
Plant response rating, Crabgrass, Large (large (Lg) crabgrass; 125 g ai/ha): 100
Crabgrass, Large plant response rating (large (Lg) crabgrass; 500 g ai/ha): 100
Wheat plant response rating (wheat; 125 g ai/ha): 20
Plant response rating, Wheat (wheat; 500 g ai/ha): 60
Barnyardgrass plant response rating (barnyardgrass; 125 g ai/ha): 70
Plant response rating, Barnyardgrass (barnyardgrass; 500 g ai/ha): 100
Blackgrass plant response rating (blackgrass; [4]): 30
Blackgrass plant response rating (blackgrass; [5]): 90
Blackgrass plant response rating (blackgrass; [6]): 90
Plant response rating, Blackgrass (blackgrass; [7]): 30
Plant response rating (0 to 100), Morningglory (morningglory [1]; 16 g ai/ha, postemergence, 0 is no effect, 100 is complete control): 80
Morningglory plant response rating (morningglory [1]; [3]): 60
Plant response rating, Morningglory (morningglory [1]; 125 g ai/ha, postemergence, visual rating, scale 0 to 100 (0 no effect, 100 complete control)): 90
Plant response rating, Morningglory (morningglory [1]; Postemergence, 62 g ai/ha, scale 0 to 100 (0 no effect, 100 complete control)): 98
Morningglory plant response rating (morningglory [2]; [8]): 30
Morningglory plant response rating (morningglory [2]; [9]): 50
Morningglory plant response rating (morningglory [2]; [10]): 100
